By IC50 is commonly meant the midpoint of a concentration-inhibition curve. Read a high IC50 as a need for much substance. As usually defined, the half-life is the time needed for the level to fall by half in the phase considered. Read a low half-life as rapid decline.

Activity calls are given as the source filed them. Where a SMILES comes first, the peptide text is derived from it. The star is where a group is joined. 6FAM = O=C1OC2(c3ccc(O)cc3Oc3cc(O)ccc32)c2cc(C(=O)*)ccc21; Stearoyl = CCCCCCCCCCCCCCCCCC(=O)*

One data set has as its system BT-474. The data set can be described thus: Antiproliferative activity against human BT474 cells after 72 hrs by CellTiter-Glo assay. The data set is classed as functional, cell-based. Particulars: BT-474, 72 h. (ATP-based viability assays read luminescence as a measure of living cells.)
The next data set relates to A549. As to the kind of experiment: Antiproliferative activity against human A549 cells after 72 hrs by CellTiter-Glo assay. Particulars: A549, 72 h. The data set is classed as functional, cell-based.
The test system of a further data set is MCF7. As to the kind of experiment: Antiproliferative activity against human MCF7 cells after 72 hrs by CellTiter-Glo assay. The data set is classed as functional, cell-based. Particulars: MCF7, 72 h.
For a further data set, the system named is Calu-3. The data set can be described thus: Antiproliferative activity against human Calu3 cells after 72 hrs by CellTiter-Glo assay. The data set is classed as functional, cell-based. Particulars: Calu-3, 72 h.
For data set [1], the target named is Receptor tyrosine-protein kinase erbB-2 (Homo sapiens) (UniProt P04626). As to the kind of experiment: Inhibition of FITC-aminocaproic acid-Arg-(S)Anapa-Phe-OH binding to HER2 domain-4 in human BT474 cells at 0.5 to 200 uM after 45 mins by fluorescence assay. The data set is classed as cell-based.
Chain of Receptor tyrosine-protein kinase erbB-2 (Homo sapiens) (P04626 whole entry, the tested form may be a part): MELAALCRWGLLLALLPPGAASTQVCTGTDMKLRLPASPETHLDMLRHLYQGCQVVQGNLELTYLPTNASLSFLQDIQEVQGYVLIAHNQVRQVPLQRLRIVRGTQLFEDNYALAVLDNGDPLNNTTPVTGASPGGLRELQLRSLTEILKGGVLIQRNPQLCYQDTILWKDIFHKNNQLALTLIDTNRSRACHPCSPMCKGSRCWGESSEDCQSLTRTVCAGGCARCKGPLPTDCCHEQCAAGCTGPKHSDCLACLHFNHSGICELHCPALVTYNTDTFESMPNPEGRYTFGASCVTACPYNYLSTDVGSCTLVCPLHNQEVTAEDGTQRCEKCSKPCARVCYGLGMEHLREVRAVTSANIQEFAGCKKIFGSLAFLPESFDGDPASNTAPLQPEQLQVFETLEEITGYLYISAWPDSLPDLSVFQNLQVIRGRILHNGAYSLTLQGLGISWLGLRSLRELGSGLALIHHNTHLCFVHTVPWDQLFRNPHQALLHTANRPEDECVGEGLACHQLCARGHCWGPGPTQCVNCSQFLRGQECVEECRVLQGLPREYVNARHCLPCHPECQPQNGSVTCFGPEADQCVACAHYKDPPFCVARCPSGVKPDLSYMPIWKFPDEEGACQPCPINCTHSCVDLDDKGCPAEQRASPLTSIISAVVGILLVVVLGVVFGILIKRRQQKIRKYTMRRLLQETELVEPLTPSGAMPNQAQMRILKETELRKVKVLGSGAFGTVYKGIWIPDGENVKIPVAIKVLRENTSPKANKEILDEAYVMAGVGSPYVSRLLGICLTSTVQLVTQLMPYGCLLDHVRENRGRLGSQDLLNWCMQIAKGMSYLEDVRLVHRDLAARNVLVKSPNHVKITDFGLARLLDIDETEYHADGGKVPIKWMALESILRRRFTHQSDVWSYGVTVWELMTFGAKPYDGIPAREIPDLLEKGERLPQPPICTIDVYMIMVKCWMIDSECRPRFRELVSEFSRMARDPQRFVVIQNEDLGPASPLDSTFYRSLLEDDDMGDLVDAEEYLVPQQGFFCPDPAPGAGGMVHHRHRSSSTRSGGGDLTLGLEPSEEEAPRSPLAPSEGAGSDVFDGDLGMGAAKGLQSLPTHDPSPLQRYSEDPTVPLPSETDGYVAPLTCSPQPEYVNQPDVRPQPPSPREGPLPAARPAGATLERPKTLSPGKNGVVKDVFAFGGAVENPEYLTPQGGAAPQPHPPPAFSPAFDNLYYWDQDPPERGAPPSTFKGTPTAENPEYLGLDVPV
The target is the same in data set [2]. The data set can be described thus: Binding affinity to HER2 extracellular domain (unknown origin) at 25 to 100 uM by SPR analysis.
In the next data set the test system is MCF-10A. As to the kind of experiment: Antiproliferative activity against human MCF10A cells after 72 hrs by CellTiter-Glo assay. The data set is classed as cell-based.
Data set [3] concerns the target Receptor tyrosine-protein kinase erbB-2 (Homo sapiens) (UniProt P04626). As to the kind of experiment: Binding affinity to HER2 in human BT474 cells assessed as inhibition of HER2:HER3 heterodimerization at 1 to 5 uM after 48 hrs by DAPI staining based proximity ligation assay. Format: cell-based.
Data set [4] is described as follows: Stability in human serum after 24 hrs by HPLC analysis. The data set is classed as ADME, cell-free.
Data set [5] concerns the target Receptor tyrosine-protein kinase erbB-2 (Homo sapiens) (UniProt P04626). As to the kind of experiment: Inhibition of Stearic acid-Gly-Arg-(S)Anapa-Phe-Asp-Gly-Gly-Gly-Lys-OH (FAM Lys side chain) binding to HER2 domain-4 in human BT474 cells after 45 mins by fluorescence assay. The data set is classed as cell-based.
For data set [6] the target is unchanged. The data set can be described thus: Inhibition of Stearic acid-Gly-Arg-(S)Anapa-Phe-Asp-Gly-Gly-Gly-Lys-OH (FAM Lys side chain) binding to HER2 domain-4 in human BT474 cells at 0.5 to 100 uM after 1 hr by DAPI staining based microscopic method. The data set is classed as cell-based.
Data set [7] has the same target. The data set can be described thus: Binding affinity to HER2 extracellular domain (unknown origin) by SPR analysis. In general terms: Surface plasmon resonance follows binding to a sensor surface in real time, without labels.
A short description of data set [8]: Stability in human serum after 24 hrs by MALDI-TOF-MS analysis. Format: ADME, cell-free.
The target in data set [9] is Receptor tyrosine-protein kinase erbB-2 (Homo sapiens) (UniProt P04626). The data set can be described thus: Inhibition of FITC-aminocaproic acid-Arg-(S)Anapa-Phe-OH binding to HER2 domain-4 in human BT474 cells after 45 mins by fluorescence assay. Format: cell-based.
Data set [10] can be described thus: Half life in human serum by HPLC analysis. The data set is classed as ADME, cell-free.
Data set [11] deals with Receptor tyrosine-protein kinase erbB-2 (Homo sapiens) (UniProt P04626). The data set can be described thus: Binding affinity to HER2 in human BT474 cells at 0.5 uM after 30 mins by DAPI staining based microscopic method. The data set is classed as cell-based.
Data set [12] shares this target. The data set can be described thus: Binding affinity to HER2 in human BT474 cells assessed as receptor internalization at 0.5 uM after 2 hrs by DAPI/Lysotracker staining based microscopic method. Format: cell-based.

Turning to `CCCCCCCCCCCCCCCCCC(=O)N[C@@H](CCCNC(=N)N)C(=O)N[C@@H](CC(=O)N[C@@H](CCCCN)C(=O)O)c1cccc2ccccc12`, the IC50 in the data set with BT-474 was found to be 1200 nM.
For `NCCCC[C@H](N)C(=O)Nc1cccc(-c2ccccc2)c1CCC(=O)N[C@@H](Cc1ccccc1)C(=O)O`, the half-inhibitory concentration (IC50) in the data set with A549, with MCF7, with Calu-3 and in the data set with BT-474 was > 35000 nM throughout. In addition, the inhibition entry in data set [1] is “inactive”. Moreover, the outcome in data set [2] was inactive.
For `CCCCCCCCCCCCCCCC(=O)N[C@@H](CCCNC(=N)N)C(=O)N[C@@H](CC(=O)N[C@@H](CCCCN)C(=O)O)c1cccc2ccccc12`, the concentration for half-maximal inhibition (IC50) in the data set with BT-474 was 1400 nM.
As for `CCCCCCCCCCCCCCCC(=O)N[C@@H](CCCNC(=N)N)C(=O)N[C@@H](CC(=O)N[C@@H](Cc1ccccc1)C(=O)O)c1cccc2ccccc12`, the IC50 in the data set on A549 is 1010 nM; with MCF7 it was > 35000 nM; in the data set with Calu-3, 1560 nM; with BT-474, 1400 nM; in the data set with MCF-10A it was > 35000 nM.
In the case of `CCCCCCCCCCCCCCCCCC(=O)N[C@@H](CCCNC(=N)N)C(=O)N[C@@H](CC(=O)N[C@@H](Cc1ccccc1)C(=O)O)c1cccc2ccccc12`, the concentration for half-maximal inhibition (IC50) was 1170 nM with A549; > 35000 nM in the data set with MCF7; 1460 nM in the data set with Calu-3; 1000 nM in the data set on BT-474; > 35000 nM in the data set on MCF-10A. For the same compound, the inhibition result in data set [3] and in [6] was “Active” each time. In addition, the Stability entry in data set [4] and in data set [8] was “Stable” each time. For the same compound, the inhibition result in data set [5] and in data set [9] was “Dose-dependent effect” each time. Moreover, the Activity result in [7] is “Dose-dependent effect”. Moreover, in [10], the half-life was 5 h.
As to `CCCCCCCCCCCCCCCCCC(=O)NCC(=O)N[C@@H](CCCNC(=N)N)C(=O)N[C@@H](C)C(=O)N[C@@H](C)C(=O)N[C@@H](CC(C)C)C(=O)NCC(=O)NCC(=O)NCC(=O)N[C@@H](CCCCNC(=O)c1ccc2c(c1)C1(OC2=O)c2ccc(O)cc2Oc2cc(O)ccc21)C(=O)O` (Stearoyl-GRAALGGGK(6FAM)-OH), the outcome in data set [11] and in data set [12] was inactive.

Source of the values: ChEMBL document CHEMBL4257567, “Design of novel lipidated peptidomimetic conjugates for targeting EGFR heterodimerization in HER2 + cancer” (Bioorg Med Chem Lett, 2018).
